# US8613931B2, “Compounds for treating beta-amyloidoses” (Affiris AG, priority 2008, dated 2013)
# Square brackets hold non-standard residues; d marks the D form. Ends that are not written are not given here. pGlu = O=C1CC[C@@H](C(=O)O)N1
# Assays:
# [1] = system: full length and/or truncated and modified forms of Aβ; test: In vivo characterisation of mimotopes: detection of Aβ/truncated/modified forms; parameters: species or system C57/bl6 mice; key: +: All peptides listed in Table 5 mount specific immune reactions against full length and/or truncated and modified forms of Aβ or fragments thereof; details: MV-003 derived mimotopes; mimotope vaccination
# Method: (§1) Inhibiting as well as non-inhibiting peptides were coupled to KLH and injected into mice (wildtype C57/Bl6 mice; subcutaneous injection into the flank) together with an appropriate adjuvant (aluminium hydroxide). Animals were vaccinated 3-6 times in biweekly intervals and sera were taken biweekly as well. Titers to injected peptides, as well as to an irrelevant peptide were determined with every serum. Furthermore, titers against the recombinant human Aβ protein, and against original peptides were determined respectively. In general sera were analysed by reaction against peptides coupled to Bovine Serum Albumin (BSA) and recombinant full length proteins which were immobilised on ELISA plates. Titers were determined using anti mouse IgG specific antibodies. For detailed results see FIGS. 6, 7 and 8 respectively.
# Female C57/bl6 mice, 5-6 mice per group, were subcutaneously immunized with 30 μg peptide coupled to KLH. Control groups were administered original epitope-KLH conjugates respectively. As adjuvant alum was used (always 1 mg per mouse). […] The in vitro ELISA assay to determine the antibody titer was performed with sera of single mice after each vaccination in a two week interval (see FIGS. 6 and 7 respectively). The wells of the ELISA plate were coated with mimotope-BSA conjugate and an irrelevant peptide-BSA conjugate (negative control). The positive control was performed by reaction of the parental antibody with the respective mimotope-BSA conjugate. The detection was performed with anti-mouse IgG. Additionally, recombinant proteins were immobilised on ELISA plates and sera reacted accordingly. FIGS. 6 to 8 show representative examples for assays used to characterise mimotopes in vivo.
# [2] = system: monoclonal antibody MV-003; test: In vitro inhibition assay (ELISA), MV-003 binding to original epitope; parameters: species or system BalbC mice; details: OD at 10 μg peptide compared to original peptide
# Method: 2. In vitro inhibition assay (ELISA)
# Different amounts of peptides (concentrations ranging from 10 μg to 0.08 μg; serial dilutions), derived from Phage Display were incubated with the monoclonal antibody that was used for the screening procedure. Peptides diminishing subsequent binding of the antibody to the original epitope coated on ELISA plates were considered as inhibiting in this assay.
# [3] = system: monoclonal antibody MV-003; test: In vitro binding assay (ELISA), parental antibody MV-003; parameters: species or system BalbC mice; details: peptide-BSA on ELISA plate; OD halfmax, dilution factor 1:X of parental AB MV-003
# Method: 1. In vitro binding assay (ELISA)
# Peptides derived from Phage Display as well as variants thereof were coupled to BSA and bound to ELISA plates (1 μM; as indicated in the respective figures) and subsequently incubated with the monoclonal antibody that was used for the screening procedure to analyse binding capacity of identified peptides.
# Tg2576 AD mouse model = test: Area occupied by amyloid plaques in Tg2576 mice after mimotope vaccination; assay type: in vivo; details: Tg2576, 6 s.c. injections at monthly intervals, peptide-KLH conjugate with ALUM
# p4371 = test: Mimotope vaccination, serum reactivity against p4371; assay type: in vivo, C57/bl6 mice; details: sera of mice s.c. immunized with 30 μg peptide coupled to KLH, alum
# Method: as §1
# (§2) Female C57/bl6 mice, 5-6 mice per group, were subcutaneously immunized with 30 μg peptide coupled to KLH. Control groups were administered original epitope-KLH conjugates respectively. As adjuvant alum was used (always 1 mg per mouse). […] The in vitro ELISA assay to determine the antibody titer was performed with sera of single mice after each vaccination in a two week interval (see FIGS. 6 and 7 respectively). The wells of the ELISA plate were coated with mimotope-BSA conjugate and an irrelevant peptide-BSA conjugate (negative control). […]
# p4373 = test: Mimotope vaccination, serum reactivity against p4373; assay type: in vivo, C57/bl6 mice; details: sera of mice s.c. immunized with 30 μg peptide coupled to KLH, alum
# Method: as §1, §2
# [4] = target: monoclonal antibody MV-003; test: inhibition ELISA; competitor: coated original epitope p4373
# [5] = target: monoclonal antibody MV-003; test: ELISA, peptide-BSA coated, MV-003; details: for Binding Capacity: scale: code
molecule,measurement,setting,value
VRWDVYPC [p4396],Detection of Aβ/truncated/modified forms,[1],+
IRWDQPC [p4756],Inhibition Capacity,[2],1 (Weaker than original epitope (OD of 10 μg peptide below 12 times of original peptide))
same,Binding Capacity,[3],3 (strong binding :>60000)
IRWDGGC [p4793],Inhibition Capacity,[2],1 (Weaker than original epitope (OD of 10 μg peptide below 12 times of original peptide))
IRWDTPC [p4395],Detection of Aβ/truncated/modified forms,[1],+
same,Inhibition Capacity,[2],1 (Weaker than original epitope (OD of 10 μg peptide below 12 times of original peptide))
same,average area occupied by amyloid plaques,"Tg2576 AD mouse model; mAb 3A5 staining, control group 0.35%",0.21%
same,reduction of area occupied by amyloid plaques following mimotope treatment,Tg2576 AD mouse model; versus control group,38%
IRYDMAGC [p4399],Detection of Aβ/truncated/modified forms,[1],+
p(E)FRHDS-C ([pGlu]FRHDSC) [p4373],immune response against p4371,p4371,mount relevant titers
IRYDAPLC [p4397],Detection of Aβ/truncated/modified forms,[1],+
same,Inhibition Capacity,[2],1 (Weaker than original epitope (OD of 10 μg peptide below 12 times of original peptide))
EFRHDS-C (EFRHDSC) [p4371],immune response against p4373,p4373,mount relevant titers
IRWDTSLC [p4728],Inhibition Capacity,[2],2 (strong inhibition (as original epitope; OD of 10 μg peptide below 5 times of original peptide))
same,Binding Capacity,[3],3 (strong binding :>60000)
IRWDGC [p4792],Inhibition Capacity,[2],1 (Weaker than original epitope (OD of 10 μg peptide below 12 times of original peptide))
IRWDTSLC [p4728],Inhibition Capacity,[4]; scale: code,2
same,Binding Capacity,[5],3
IRWDQPC [p4756],Inhibition Capacity (code (weaker than original epitope)),[4],1
same,Binding Capacity,[5],3
IRWDGC [p4792],Inhibition Capacity (code (weaker than original epitope)),[4],1
same,"Binding Capacity (code (weak binding, OD halfmax 1:<16000))",[5],1
IRWDGGC [p4793],Inhibition Capacity (code (weaker than original epitope)),[4],1
same,Binding Capacity,[5],2
IRYDAPLC [p4397],Inhibition Capacity (code (weaker than original epitope)),[4],1
same,"Binding Capacity (code (weak binding, OD halfmax 1:<16000))",[5],1
